Measurements from PMC3108484 (Frontiers in Pharmacology, 2011).
Several values for one entry are separate records, joined by “and”; a condition that tells them apart may be missing. Equal values may be shown once.

Legend:
Human CCK1 (CCKA) = Human CCK1 (CCKA) (Homo sapiens, UniProt P32238); experiment: Radioligand binding: Human CCK1
Human 5-HT3a = Human 5-HT3a (Homo sapiens, UniProt P46098); experiment: Radioligand binding: Human 5-HT3a
Human 5-HT2C = Human 5-HT2C (Homo sapiens, UniProt P28335); experiment: Radioligand binding: Human 5-HT2C
Human 5-HT6 = Human 5-HT6 (Homo sapiens, UniProt P50406); experiment: Radioligand binding: Human 5-HT6
Human COX2 = Human COX2 (Homo sapiens, UniProt P35354); experiment: Enzyme inhibition: Human COX2
Human D2S = Human D2S (Homo sapiens, UniProt P14416); experiment: Radioligand binding: Human D2S
Human CB1 = Human CB1 (Homo sapiens, UniProt P21554); experiment: Radioligand binding: Human CB1
Human 5-HT2A = Human 5-HT2A (Homo sapiens, UniProt P28223); experiment: Radioligand binding: Human 5-HT2A
Human NK2 = Human NK2 (Homo sapiens, UniProt P21452); experiment: Radioligand binding: Human NK2
rat Nav1.2 = experiment: Whole cell voltage-clamp, neuronal sodium current; conditions: 3 μM for 3 min, n = 3 cells
Human D1 = Human D1 (Homo sapiens, UniProt P21728); experiment: Radioligand binding: Human D1
Human V1a = Human V1a (Homo sapiens, UniProt P37288); experiment: Radioligand binding: Human V1a
Human ETB = Human ETB (Homo sapiens, UniProt P24530); experiment: Radioligand binding: Human ETB
Human 5-HT1A = Human 5-HT1A (Homo sapiens, UniProt P08908); experiment: Radioligand binding: Human 5-HT1A
K+V channel = assay type: binding; conditions: [125I]-α-dendrotoxin 0.01 nM
[1] = biological target: Human norepinephrine transporter (Homo sapiens, UniProt P23975); experiment: Radioligand binding: Human norepinephrine transporter
Human D5 = Human D5 (Homo sapiens, UniProt P21918); experiment: Radioligand binding: Human D5
SK+Ca channel = experiment: Radioligand binding: SK+Ca channel; conditions: [125I]-apamin 0.004 nM
Human VPAC1 (VIP1) = Human VPAC1 (VIP1) (Homo sapiens, UniProt P32241); experiment: Radioligand binding: Human VPAC1
Human μ = Human μ (Homo sapiens, UniProt P35372); experiment: Radioligand binding: Human μ opiate receptor
Human CGRP = Human CGRP (Homo sapiens, UniProt O60894+Q16602); experiment: Radioligand binding: Human CGRP
5-HT4 receptor = 5-HT4 receptor (Cavia porcellus, UniProt O70528); experiment: Guinea pig colonic longitudinal muscle/myenteric plexus; conditions: isolated tissue, % of primed 5-HT (0.3 μM) maximum
Human V2 = Human V2 (Homo sapiens, UniProt P30518); experiment: Radioligand binding: Human V2
[2] = biological target: Rat α7 nAChR (α-BGTX-sensitive) (Rattus norvegicus, UniProt Q05941); experiment: biochemical; assay type: binding
Rat σ (non-selective) = experiment: Radioligand binding: Rat σ; conditions: [3H]-DTG 8 nM
Human 5-HT7 = Human 5-HT7 (Homo sapiens, UniProt P34969); experiment: Radioligand binding: Human 5-HT7
[3] = biological target: Rat Ca2+ channel (L, diltiazem site); experiment: Radioligand binding: Rat Ca2+ channel; conditions: [3H]-diltiazem 5 nM
human Nav1.5 = human Nav1.5 (Homo sapiens, UniProt Q14524); experiment: Whole cell voltage-clamp, cardiac sodium current; conditions: 3 μM for 3 min, n = 3 cells
Human 5-HT2B = Human 5-HT2B (Homo sapiens, UniProt P41595); experiment: Radioligand binding: Human 5-HT2B
Rat α1 (non-selective) = experiment: Radioligand binding: Rat α1; conditions: [3H]-prazosin 0.25 nM
Human B2 = Human B2 (Homo sapiens, UniProt P30411); experiment: Radioligand binding: Human B2
Human M1 = Human M1 (Homo sapiens, UniProt P11229); experiment: Radioligand binding: Human M1
[4] = biological target: Human acetylcholinesterase (Homo sapiens, UniProt P22303); experiment: Enzyme inhibition: Human acetylcholinesterase
Rat adenylyl cyclase = experiment: Enzyme inhibition: Rat adenylyl cyclase; conditions: ATP 500 μM, TD-8954 1 μM
[5] = read-out: % Inhibition of control (1 μM)
[6] = read-out: % Inhibition of specific binding (1 μM)

Sequence of Human D1 (P21728 whole entry): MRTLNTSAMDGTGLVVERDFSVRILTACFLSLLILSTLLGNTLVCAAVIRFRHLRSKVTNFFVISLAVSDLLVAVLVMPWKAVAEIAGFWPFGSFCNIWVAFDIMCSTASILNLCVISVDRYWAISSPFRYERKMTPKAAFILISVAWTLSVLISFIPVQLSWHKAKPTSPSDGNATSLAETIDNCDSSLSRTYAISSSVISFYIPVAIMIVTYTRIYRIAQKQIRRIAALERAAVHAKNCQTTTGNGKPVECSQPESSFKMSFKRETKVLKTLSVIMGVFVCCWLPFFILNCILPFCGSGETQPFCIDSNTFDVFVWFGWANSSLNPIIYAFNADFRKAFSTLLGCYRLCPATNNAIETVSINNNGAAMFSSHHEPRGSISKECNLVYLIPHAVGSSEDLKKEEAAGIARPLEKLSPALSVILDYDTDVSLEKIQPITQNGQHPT
Sequence of Human norepinephrine transporter (P23975 whole entry): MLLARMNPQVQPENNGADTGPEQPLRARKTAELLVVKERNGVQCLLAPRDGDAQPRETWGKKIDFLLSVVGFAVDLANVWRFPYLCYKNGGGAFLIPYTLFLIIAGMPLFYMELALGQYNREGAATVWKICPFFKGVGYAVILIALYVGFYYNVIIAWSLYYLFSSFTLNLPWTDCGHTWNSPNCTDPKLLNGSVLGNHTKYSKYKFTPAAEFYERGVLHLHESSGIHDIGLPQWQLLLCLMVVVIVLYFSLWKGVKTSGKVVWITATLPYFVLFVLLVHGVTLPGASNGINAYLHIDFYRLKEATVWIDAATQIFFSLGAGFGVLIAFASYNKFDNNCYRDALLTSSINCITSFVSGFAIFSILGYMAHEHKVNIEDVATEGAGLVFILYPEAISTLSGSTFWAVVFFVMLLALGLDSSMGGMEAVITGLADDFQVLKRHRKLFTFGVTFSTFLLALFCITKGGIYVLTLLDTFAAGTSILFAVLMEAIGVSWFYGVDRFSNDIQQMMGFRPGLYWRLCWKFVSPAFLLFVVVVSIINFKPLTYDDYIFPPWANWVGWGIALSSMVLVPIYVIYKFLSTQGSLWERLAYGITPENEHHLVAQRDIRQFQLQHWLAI
Sequence of 5-HT4 receptor (O70528 whole entry): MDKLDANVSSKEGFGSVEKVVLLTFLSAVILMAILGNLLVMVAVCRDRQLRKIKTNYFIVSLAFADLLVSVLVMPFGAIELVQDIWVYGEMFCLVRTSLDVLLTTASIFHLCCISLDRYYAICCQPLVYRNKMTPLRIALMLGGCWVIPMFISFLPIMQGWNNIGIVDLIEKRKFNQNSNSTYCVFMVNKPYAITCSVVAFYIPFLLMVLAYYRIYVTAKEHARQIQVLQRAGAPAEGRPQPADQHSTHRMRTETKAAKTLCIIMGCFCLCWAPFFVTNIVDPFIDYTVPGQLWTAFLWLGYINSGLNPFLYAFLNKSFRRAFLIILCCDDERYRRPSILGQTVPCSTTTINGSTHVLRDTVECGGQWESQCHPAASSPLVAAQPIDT
Sequence of Human acetylcholinesterase (P22303 32-614): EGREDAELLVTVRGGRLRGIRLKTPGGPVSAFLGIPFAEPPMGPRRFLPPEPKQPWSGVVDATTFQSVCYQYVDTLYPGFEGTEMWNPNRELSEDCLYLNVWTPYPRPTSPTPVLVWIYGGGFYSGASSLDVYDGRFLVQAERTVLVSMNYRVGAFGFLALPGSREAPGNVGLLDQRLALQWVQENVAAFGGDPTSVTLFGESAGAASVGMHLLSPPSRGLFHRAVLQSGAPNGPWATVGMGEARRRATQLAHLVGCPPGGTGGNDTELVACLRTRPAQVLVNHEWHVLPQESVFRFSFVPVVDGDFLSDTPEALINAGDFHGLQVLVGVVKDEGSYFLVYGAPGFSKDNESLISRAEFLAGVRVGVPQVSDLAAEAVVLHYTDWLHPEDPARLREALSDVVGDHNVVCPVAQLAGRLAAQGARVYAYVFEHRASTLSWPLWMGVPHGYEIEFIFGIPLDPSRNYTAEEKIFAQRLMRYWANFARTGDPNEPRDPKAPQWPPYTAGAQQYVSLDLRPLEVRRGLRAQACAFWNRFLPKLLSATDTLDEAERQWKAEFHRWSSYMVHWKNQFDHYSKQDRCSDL
Sequence of Rat α7 nAChR (α-BGTX-sensitive) (Q05941 23-502): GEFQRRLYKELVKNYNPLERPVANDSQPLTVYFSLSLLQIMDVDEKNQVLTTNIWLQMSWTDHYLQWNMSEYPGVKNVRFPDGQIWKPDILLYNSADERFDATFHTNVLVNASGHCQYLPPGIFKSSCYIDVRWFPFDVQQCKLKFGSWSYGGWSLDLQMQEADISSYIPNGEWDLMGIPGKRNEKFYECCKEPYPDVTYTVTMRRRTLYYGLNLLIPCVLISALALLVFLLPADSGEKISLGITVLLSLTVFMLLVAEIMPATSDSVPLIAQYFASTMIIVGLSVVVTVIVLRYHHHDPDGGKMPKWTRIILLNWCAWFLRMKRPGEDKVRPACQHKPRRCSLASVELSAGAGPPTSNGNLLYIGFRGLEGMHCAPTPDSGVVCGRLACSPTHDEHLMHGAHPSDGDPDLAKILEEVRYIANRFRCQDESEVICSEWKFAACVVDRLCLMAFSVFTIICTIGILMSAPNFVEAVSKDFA
Sequence of Human COX2 (P35354 18-604): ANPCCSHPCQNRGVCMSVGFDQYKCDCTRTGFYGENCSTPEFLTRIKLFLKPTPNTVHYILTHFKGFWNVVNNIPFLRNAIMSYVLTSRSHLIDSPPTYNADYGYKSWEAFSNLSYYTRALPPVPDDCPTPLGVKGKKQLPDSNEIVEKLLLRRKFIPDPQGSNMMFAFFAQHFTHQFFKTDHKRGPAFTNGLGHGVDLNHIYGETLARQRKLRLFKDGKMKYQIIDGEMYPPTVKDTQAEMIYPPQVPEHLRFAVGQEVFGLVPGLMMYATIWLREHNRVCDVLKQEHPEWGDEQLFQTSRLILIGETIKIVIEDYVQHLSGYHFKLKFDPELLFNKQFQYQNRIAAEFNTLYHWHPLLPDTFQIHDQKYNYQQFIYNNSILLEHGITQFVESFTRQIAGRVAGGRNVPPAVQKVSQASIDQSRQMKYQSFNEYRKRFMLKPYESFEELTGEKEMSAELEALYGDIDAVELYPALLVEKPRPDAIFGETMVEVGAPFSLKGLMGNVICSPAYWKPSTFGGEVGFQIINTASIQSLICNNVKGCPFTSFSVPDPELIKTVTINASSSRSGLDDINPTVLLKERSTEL
Sequence of Human V1a (P37288 whole entry): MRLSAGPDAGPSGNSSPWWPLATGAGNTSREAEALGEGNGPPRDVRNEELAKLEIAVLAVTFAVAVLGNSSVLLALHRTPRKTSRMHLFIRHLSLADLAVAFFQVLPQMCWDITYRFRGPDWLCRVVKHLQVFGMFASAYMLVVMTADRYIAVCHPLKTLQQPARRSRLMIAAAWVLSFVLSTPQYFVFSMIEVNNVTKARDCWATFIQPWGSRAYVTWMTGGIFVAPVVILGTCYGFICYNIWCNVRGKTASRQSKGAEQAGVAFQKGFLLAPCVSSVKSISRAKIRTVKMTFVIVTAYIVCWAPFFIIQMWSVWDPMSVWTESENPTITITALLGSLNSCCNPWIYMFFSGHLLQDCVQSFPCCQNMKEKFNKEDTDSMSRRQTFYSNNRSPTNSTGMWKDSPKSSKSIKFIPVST
Sequence of Human ETB (P24530 27-442): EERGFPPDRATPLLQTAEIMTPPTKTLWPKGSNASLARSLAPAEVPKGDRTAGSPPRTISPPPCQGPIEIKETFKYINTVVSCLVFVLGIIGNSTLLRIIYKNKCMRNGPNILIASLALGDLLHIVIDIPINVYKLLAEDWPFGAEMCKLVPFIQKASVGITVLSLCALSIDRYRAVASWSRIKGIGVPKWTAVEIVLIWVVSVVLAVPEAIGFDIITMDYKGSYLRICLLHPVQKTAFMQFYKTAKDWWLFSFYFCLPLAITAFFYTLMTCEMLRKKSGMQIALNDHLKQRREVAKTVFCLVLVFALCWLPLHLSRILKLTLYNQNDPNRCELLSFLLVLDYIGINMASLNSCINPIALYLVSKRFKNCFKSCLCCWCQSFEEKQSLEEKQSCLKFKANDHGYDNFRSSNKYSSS
Sequence of Human B2 (P30411 whole entry): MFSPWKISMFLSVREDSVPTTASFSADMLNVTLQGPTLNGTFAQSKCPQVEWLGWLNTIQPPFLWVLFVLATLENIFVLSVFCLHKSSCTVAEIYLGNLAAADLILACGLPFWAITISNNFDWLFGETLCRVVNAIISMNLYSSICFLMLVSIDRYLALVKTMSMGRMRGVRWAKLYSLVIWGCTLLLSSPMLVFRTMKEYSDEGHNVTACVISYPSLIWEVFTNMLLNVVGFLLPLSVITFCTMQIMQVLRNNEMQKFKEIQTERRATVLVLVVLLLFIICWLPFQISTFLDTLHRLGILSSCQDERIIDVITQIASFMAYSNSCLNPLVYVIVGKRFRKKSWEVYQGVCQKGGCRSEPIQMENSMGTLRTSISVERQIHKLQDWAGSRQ
Sequence of Human D2S (P14416 1-414 isoform P14416-2): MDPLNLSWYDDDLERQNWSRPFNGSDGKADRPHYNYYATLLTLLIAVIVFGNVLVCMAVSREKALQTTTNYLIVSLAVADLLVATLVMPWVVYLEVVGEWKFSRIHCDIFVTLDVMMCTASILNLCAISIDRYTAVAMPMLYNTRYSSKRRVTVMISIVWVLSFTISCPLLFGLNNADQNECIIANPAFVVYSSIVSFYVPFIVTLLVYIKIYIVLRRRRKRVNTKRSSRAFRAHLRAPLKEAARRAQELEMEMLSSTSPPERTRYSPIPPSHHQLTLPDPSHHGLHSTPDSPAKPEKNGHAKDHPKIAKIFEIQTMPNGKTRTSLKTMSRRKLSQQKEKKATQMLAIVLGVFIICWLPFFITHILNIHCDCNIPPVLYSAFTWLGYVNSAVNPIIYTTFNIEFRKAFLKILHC

## COC(=O)N1CCC(CN2CCC(CNC(=O)c3cccc4[nH]c(C(C)C)nc34)CC2)CC1 [TD-8954, 4-(4-{[(2-isopropyl-1H-benzoimidazole-4-carbonyl)amino]methyl}-piperidin-1-ylmethyl)piperidine-1-carboxylic acid methyl ester]
Human CCK1 (CCKA)
  Ki: > 1 µM
Human 5-HT3a
  Ki: > 100 µM
Human 5-HT2C
  Ki: > 1 µM
Human 5-HT6
  Ki: > 1 µM
Human COX2
  IC50: > 1 µM
Human COX2; [5]
  inhibition at 1 µM: -36%
Human D2S
  Ki: > 1 µM
Human D2S; [6]
  inhibition at 1 µM: 6%
Human CB1
  Ki: > 1 µM
Human 5-HT2A
  Ki: > 1 µM
Human NK2
  Ki: > 1 µM
Rat Nav1.2
  effect on magnitude of inward rat Nav1.2a sodium current: no effect
Human D1
  Ki: > 1 µM
Human D1; [6]
  inhibition at 1 µM: -2%
Human V1a
  Ki: > 1 µM
Human V1a; [6]
  inhibition at 1 µM: 1%
Human ETB
  Ki: > 1 µM
Human ETB; [6]
  inhibition at 1 µM: 5%
Human 5-HT1A
  Ki: > 1 µM
K+V channel
  pKi: <6
K+V channel; TD-8954 1 μM
  % Inhibition of specific binding (1 μM): −5%
[1]
  Ki: > 1 µM
[1]; [6]
  inhibition at 1 µM: 6%
Human D5
  Ki: > 1 µM
SK+Ca channel
  pKi: <6
SK+Ca channel; TD-8954 1 μM
  % Inhibition of specific binding (1 μM): −4%
Human VPAC1 (VIP1)
  Ki: > 1 µM
Human VPAC1 (VIP1); [6]
  inhibition at 1 µM: 2%
Human μ
  Ki: > 1 µM
Human CGRP
  Ki: > 1 µM
5-HT4 receptor
  Guinea pig colonic LMMP contractile activity IA (mean % 5-HT max ± SEM): 55 % 5-HT max and 55 ± 2 % 5-HT max
Human V2
  Ki: > 1 µM
[2]
  Ki: > 1 µM
[2]; [6]
  inhibition at 1 µM: 3%
Rat σ (non-selective)
  pKi: <6
Human 5-HT7
  Ki: > 1 µM
[3]
  pKi: <6
Human Nav1.5
  effect on magnitude of inward human Nav1.5 sodium current: no effect
Human 5-HT2B
  Ki: > 1 µM
Rat α1 (non-selective)
  pKi: <6
Rat α1 (non-selective); TD-8954 1 μM
  % Inhibition of specific binding (1 μM): −1%
Human B2
  Ki: > 1 µM
Human B2; [6]
  inhibition at 1 µM: 3%
Human M1
  Ki: > 1 µM
[4]
  IC50: > 1 µM
[4]; [5]
  inhibition at 1 µM: 2%
Rat adenylyl cyclase
  % Inhibition of control (1 μM): 5%
